The record followed here is PMC10649752, “Design and Synthesis of Novel Chalcone Derivatives: Anti-Breast Cancer Activity Evaluation and Docking Study” (International Journal of Molecular Sciences, 2023).

Holding throughout (format): cell-based
Test [1] deals with MCF-7 cells. In words: CCK-8 antiproliferative activity on MCF-7 cells. How it is done:
(§1) DMEM high glucose medium and fetal calf serum were obtained from Gibco (New York, NY, USA), and cell counting Kit-8 solution was purchased from Meilunbio (Dalian, China). Paraformaldehyde and Crystal Violet were purchased from Biosharp (Hefei, China). The MCF-7 and L-02 cell lines were purchased from the Shanghai Institute of Biochemistry (Shanghai, China) All the target compounds and 5-fluorouracil (5-Fu) were dissolved with DMSO at a concentration of 20 mM. Cell culture medium was a mixture of DMEM medium, 10% fetal bovine serum, and 1% penicillin–streptomycin solution stored at […]. The cells were grown at 37 °C under 5% CO2.
(§2) Cells were seeded into 96 well plates with 4000 cells/well using DMEM solution and incubated in a humid atmosphere containing 5% CO2 at 37 °C for 24 h. Compounds with different concentrations (200 μM, 100 μM, 50 μM, 25 μM, 12.5 μM, 6.25 μM, 3.125 μM, 1.5625 μM) were added to the culture medium for 24 h. After that, CCK-8 reagent (10 μL) was added under dark conditions and incubated the plate in a CO2 incubator at 37 °C for 2 h. After incubation, the absorbance was measured using an enzyme-linked immunosorbent assay at a wavelength of 450 nm. Cell survival rate was calculated as a percentage of the control group.
(§3) By using Graph Pad Prism 8.0 software, the concentration that inhibits 50% of maximum cell proliferation was determined to be IC50 value.

Test [2] relates to human normal hepatocyte L-O2. Briefly: CCK-8 cytotoxicity against normal hepatocyte L-O2 cells. To be noted: for IC50: human normal hepatocyte L-O2, CCK-8, 24 h. How it is done:
We have selected compounds A7, A8, A9, and A14 with relatively low IC50 values, which are considered to have more potential and are more meaningful for further research. The toxic effects of compounds A7, A8, A9, and A14 on normal hepatocytes cells L-O2 were assessed in this work to examine the selective toxicity of the new compounds on cancer cells without harming normal cells. The selectivity index was calculated as a ratio of L-02 IC50/MCF-7 IC50 for these four compounds. […] Therefore, A8 and A14 were chosen as representative medications for future research after thorough evaluation.
as §1, §2, §3

Test [3] relates to MCF-7 cells. In words: Migration ability assay (wound healing / scratch). To be noted: various concentrations, 24 h and 48 h, vs control group. How it is done:
An obvious feature of breast cancer cells is their strong migration ability. In order to study the inhibitory effect of compounds on breast cancer cells migration, the scratch distances of compounds A8 and A14 on MCF-7 cells at different concentrations were measured by wound healing experiments. […] Moreover, under similar concentrations, the inhibitory migration effect of the target compound on MCF-7 is more excellent than that of the control drug 5-Fu.
MCF-7 cells were seeded into six-well plates at a density of 3000 cells/well and growing for 24 h. Scratches were made in confluent monolayers with 200 μL pipette tip. After that, each well was washed with PBS buffer 3 times to remove non-adherent cell debris. MCF-7 cells were continually incubated with different concentrations of compounds or positive control for 24 or 48 h. The area of cells migrated across the wound was photographed using phase contrast microscopy at 0 h, 24 h, and 48 h. The migration distance of cells into the wound area was measured by ImageJ2 software at room temperature.

The test system of test [4] is MCF-7 cells. Briefly: Cell colony formation assay. The following applies: 7 days treatment, drug concentrations greater than 8 µmol/L, vs blank control. Here is the method:
MCF-7 cells were seeded into six-well plates at a density of 1000 cells/well and cultivated for 24 h. After that, the cells were continually incubated with different concentrations of compounds and positive control for 7 days. Each well was carefully rinsed three times with PBS buffer quickly at room temperature. Collected cells were fixed for 1 h at room temperature by adding 2 mL of 4% paraformaldehyde solution. The results were analyzed using the ImageJ software.

Entries after “also recorded” stand apart in the source; their conditions may differ.

For the compound `O=c1[nH]cc(F)c(=O)[nH]1` [Compound 5-Fu, 5-fluorouracil, reference compound], the IC50 in test [1] (Homo sapiens, MCF7, CCK-8, 24 h treatment) was 169 µM; in test [2] it was 200 µM. The “Selectivity Index (SI)” value in test [2] (ratio L-02 IC50/MCF-7 IC50) was determined as 1.18.

Take `COc1cc(C(=O)/C=C/c2ccc(C(=O)NCc3cccs3)cc2)cc(OC)c1OC` [Compound A7, (E)-4-(3-oxo-3-(3,4,5-trimethoxyphenyl)prop-1-en-1-yl)-N-(thiophen-2-ylmethyl) benzamide]: the IC50 in test [1] (CCK-8, 24 h treatment) was determined as 19.1 µM.

In the case of `COc1cc(C(=O)/C=C/c2ccc(C(=O)NCC3CCOC3)cc2)cc(OC)c1OC` (stereo not drawn) [Compound A8, (E)-4-(3-oxo-3-(3,4,5-trimethoxyphenyl)prop-1-en-1-yl)-N-((tetrahydrofuran-3-yl)methyl) benzamide], the “Inhibition of MCF-7 cell migration (scratch distance)” value in test [3] is listed as “inhibited MCF-7 cell migration; also recorded: effectively inhibited the migration of MCF-7 cells in a dose-dependent manner”. The IC50 in test [1] (CCK-8, 24 h treatment) was determined as 16.7 µM; in test [2] it was 47.2 µM.

In the case of `COc1cc(C(=O)/C=C/c2ccc(C(=O)NCC3CC3)cc2)cc(OC)c1OC` [Compound A9, (E)-N-(cyclopropylmethyl)-4-(3-oxo-3-(3,4,5-trimethoxyphenyl)prop-1-en-1-yl) benzamide], the IC50 in test [1] (CCK-8, 24 h treatment) was determined as 19.6 µM; in test [2] it was 35.3 µM.

Regarding `COc1cc(C(=O)/C=C/c2ccc(C(=O)OCCCSc3ccncc3)cc2)cc(OC)c1OC` [Compound A14, 3-(pyridin-4-ylthio) propyl (E)-4-(3-oxo-3-(3,4,5-trimethoxyphenyl)prop-1-en-1-yl) benzoate], the “Inhibition of MCF-7 cell migration (scratch distance)” value in test [3] is given as “inhibited MCF-7 cell migration; also recorded: effectively inhibited the migration of MCF-7 cells in a dose-dependent manner”. The “Colony formation of MCF-7 cells” value in test [4] is reported as “significantly reduced”. In test [2], this compound yielded an IC50 of 41.2 µM.
